ChEMBL document CHEMBL4715821, “Discovery of 4-ethoxy-7H-pyrrolo[2,3-d]pyrimidin-2-amines as potent, selective and orally bioavailable LRRK2 inhibitors” (Bioorg Med Chem Lett, 2018)

Assays:
[1] = molecular target: Epidermal growth factor receptor (Homo sapiens) (UniProt P00533); test: Inhibition of wild-type human partial length EGFR (R669 to V1011 residues) expressed in bacterial expression system assessed as residual activity at 1 uM by Kinomescan method relative to control
[2] = molecular target: Tyrosine-protein kinase JAK3 (Homo sapiens) (UniProt P52333); test: Inhibition of wild type human partial length JAK3 (I781 to S1124 residues) expressed in mammalian expression system assessed as residual activity at 1 uM by Kinomescan method relative to control
[3] = molecular target: Vascular endothelial growth factor receptor 2 (Homo sapiens) (UniProt P35968); test: Inhibition of wild-type human partial length VEGFR2 (R787 to P1253 residues) expressed in mammalian expression system assessed as residual activity at 1 uM by Kinomescan method relative to control
[4] = molecular target: Serine/threonine-protein kinase MARK1 (Homo sapiens) (UniProt Q9P0L2); test: Inhibition of wild-type human partial length MARK1 (Q30 to T341 residues) expressed in bacterial expression system assessed as residual activity at 1 uM by Kinomescan method relative to control
[5] = molecular target: RAC-alpha serine/threonine-protein kinase (Homo sapiens) (UniProt P31749); test: Inhibition of wild-type human partial length AKT1 expressed in bacterial expression system assessed as residual activity at 1 uM by Kinomescan method relative to control
[6] = molecular target: Cyclin-dependent kinase 7/ cyclin H (Homo sapiens) (UniProt P51946+P50613); test: Inhibition of wild-type human full length CDK7 (M1 to L344 residues)/cyclin H expressed in mammalian expression system assessed as residual activity at 1 uM by Kinomescan method relative to control
[7] = molecular target: Ephrin type-A receptor 2 (Homo sapiens) (UniProt P29317); test: Inhibition of wild type human partial length EPHA2 (T593 to V891 residues) expressed in bacterial expression system assessed as residual activity at 1 uM by Kinomescan method relative to control
[8] = molecular target: Mitogen-activated protein kinase 15 (Homo sapiens) (UniProt Q8TD08); test: Inhibition of ERK7 (unknown origin) assessed as residual activity at 1 uM by Kinomescan method relative to control
[9] = molecular target: Casein kinase II subunit alpha' (Homo sapiens) (UniProt P19784); test: Inhibition of CK2a2 (unknown origin) assessed as residual activity at 1 uM by Kinomescan method relative to control
[10] = molecular target: CDK1/Cyclin A (Homo sapiens) (UniProt P06493+P20248); test: Inhibition of wild-type human full length CDK1 (M1 to M297 residues) /Cyclin A expressed in mammalian expression system assessed as residual activity at 1 uM by Kinomescan method relative to control
[11] = molecular target: Proto-oncogene tyrosine-protein kinase receptor Ret (Homo sapiens) (UniProt P07949); test: Inhibition of wild-type human partial length RET (E713 to D1014 residues) expressed in bacterial expression system assessed as residual activity at 1 uM by Kinomescan method relative to control
[12] = molecular target: Macrophage colony-stimulating factor 1 receptor (Homo sapiens) (UniProt P07333); test: Inhibition of FMS (unknown origin) assessed as residual activity at 1 uM by Kinomescan method relative to control
[13] = molecular target: MAP kinase-activated protein kinase 2 (Homo sapiens) (UniProt P49137); test: Inhibition of wild-type human partial length MAPKAPK2 (V48 to D345 residues) expressed in bacterial expression system assessed as residual activity at 1 uM by Kinomescan method relative to control
[14] = molecular target: Aurora kinase A (Homo sapiens) (UniProt O14965); test: Inhibition of wild-type human partial length AURKA (E122 to K401 residues) expressed in mammalian expression system assessed as residual activity at 1 uM by Kinomescan method relative to control
[15] = molecular target: Platelet-derived growth factor receptor beta (Homo sapiens) (UniProt P09619); test: Inhibition of wild-type human partial length PDGFRB (V582 to Y1009 residues) expressed in bacterial expression system assessed as residual activity at 1 uM by Kinomescan method relative to control
[16] = molecular target: Serine/threonine-protein kinase SIK3 (Homo sapiens) (UniProt Q9Y2K2); test: Inhibition of SIK3 (unknown origin) assessed as residual activity at 1 uM by Kinomescan method relative to control
[17] = molecular target: Ribosomal protein S6 kinase alpha-2 (Homo sapiens) (UniProt Q15349); test: Inhibition of human RSK3 expressed in bacterial expression system assessed as residual activity at 1 uM by Kinomescan method relative to control
[18] = molecular target: Casein kinase I isoform gamma-2 (Homo sapiens) (UniProt P78368); test: Inhibition of CK1g2 (unknown origin) assessed as residual activity at 1 uM by Kinomescan method relative to control
[19] = molecular target: Tyrosine-protein kinase SYK (Homo sapiens) (UniProt P43405); test: Inhibition of wild-type human partial length SYK (D354 to N635 residues) expressed in bacterial expression system assessed as residual activity at 1 uM by Kinomescan method relative to control
[20] = molecular target: Ephrin type-B receptor 3 (Homo sapiens) (UniProt P54753); test: Inhibition of wild-type human partial length EPHB3 (Q599 to T928 residues) expressed in bacterial expression system assessed as residual activity at 1 uM by Kinomescan method relative to control
[21] = molecular target: Mitogen-activated protein kinase kinase kinase 10 (Homo sapiens) (UniProt Q02779); test: Inhibition of wild-type human partial length MLK2 (V52 to W380 residues) expressed in bacterial expression system assessed as residual activity at 1 uM by Kinomescan method relative to control
[22] = molecular target: Serine/threonine-protein kinase PLK2 (Homo sapiens) (UniProt Q9NYY3); test: Inhibition of wild-type human partial length PLK2 (H58 to F354 residues) expressed in mammalian expression system assessed as residual activity at 1 uM by Kinomescan method relative to control
[23] = molecular target: TGF-beta receptor type-2 (Homo sapiens) (UniProt P37173); test: Inhibition of wild-type human partial length TGFBR2 (I218 to K567 residues) expressed in bacterial expression system assessed as residual activity at 1 uM by Kinomescan method relative to control
[24] = molecular target: MAP/microtubule affinity-regulating kinase 3 (Homo sapiens) (UniProt P27448); test: Inhibition of wild-type human full length MARK3 (M1 to L729 residues) expressed in bacterial expression system assessed as residual activity at 1 uM by Kinomescan method relative to control
[25] = molecular target: Serine/threonine-protein kinase LATS1 (Homo sapiens) (UniProt O95835); test: Inhibition of wild-type human partial length LATS1 (Q678 to V1130 residues) expressed in bacterial expression system assessed as residual activity at 1 uM by Kinomescan method relative to control
[26] = molecular target: Non-receptor tyrosine-protein kinase TNK1 (Homo sapiens) (UniProt Q13470); test: Inhibition of wild-type human full length TNK1 (M1 to P661 residues) expressed in bacterial expression system assessed as residual activity at 1 uM by Kinomescan method relative to control

Serine/threonine-protein kinase MARK1 (Homo sapiens), sequence (Q9P0L2 whole entry, looked up, the tested form may be a part): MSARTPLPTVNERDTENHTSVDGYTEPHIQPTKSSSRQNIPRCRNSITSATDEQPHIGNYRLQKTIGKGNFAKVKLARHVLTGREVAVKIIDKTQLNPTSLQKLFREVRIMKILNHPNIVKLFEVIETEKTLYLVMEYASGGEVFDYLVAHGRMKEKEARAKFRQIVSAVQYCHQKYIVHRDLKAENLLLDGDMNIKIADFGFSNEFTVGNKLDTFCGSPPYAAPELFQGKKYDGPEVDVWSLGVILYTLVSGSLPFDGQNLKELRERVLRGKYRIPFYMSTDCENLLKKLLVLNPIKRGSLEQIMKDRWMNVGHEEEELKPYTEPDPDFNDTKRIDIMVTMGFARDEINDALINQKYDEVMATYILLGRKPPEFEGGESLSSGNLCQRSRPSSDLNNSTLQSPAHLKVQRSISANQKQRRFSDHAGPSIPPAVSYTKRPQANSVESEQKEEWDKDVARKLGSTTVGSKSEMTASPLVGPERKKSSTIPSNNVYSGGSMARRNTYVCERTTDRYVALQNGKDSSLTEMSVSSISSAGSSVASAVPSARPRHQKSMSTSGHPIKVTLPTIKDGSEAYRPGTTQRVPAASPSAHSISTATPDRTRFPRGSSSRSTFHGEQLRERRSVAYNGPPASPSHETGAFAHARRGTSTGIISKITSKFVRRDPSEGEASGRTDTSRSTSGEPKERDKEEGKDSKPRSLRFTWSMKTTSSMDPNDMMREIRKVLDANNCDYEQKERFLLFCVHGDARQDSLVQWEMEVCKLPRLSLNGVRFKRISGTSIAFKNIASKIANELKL
Casein kinase II subunit alpha' (Homo sapiens), sequence (P19784 whole entry, looked up, the tested form may be a part): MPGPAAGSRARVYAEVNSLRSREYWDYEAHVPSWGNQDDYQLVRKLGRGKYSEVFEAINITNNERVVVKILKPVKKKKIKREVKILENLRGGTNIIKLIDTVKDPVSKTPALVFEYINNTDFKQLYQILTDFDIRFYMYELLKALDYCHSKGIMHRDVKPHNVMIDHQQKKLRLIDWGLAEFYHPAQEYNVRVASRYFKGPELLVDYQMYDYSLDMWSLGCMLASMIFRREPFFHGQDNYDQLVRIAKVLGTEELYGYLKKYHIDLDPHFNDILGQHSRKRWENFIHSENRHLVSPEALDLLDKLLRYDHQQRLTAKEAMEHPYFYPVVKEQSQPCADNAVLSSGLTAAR
Vascular endothelial growth factor receptor 2 (Homo sapiens), sequence (P35968 whole entry, the tested form may be a part): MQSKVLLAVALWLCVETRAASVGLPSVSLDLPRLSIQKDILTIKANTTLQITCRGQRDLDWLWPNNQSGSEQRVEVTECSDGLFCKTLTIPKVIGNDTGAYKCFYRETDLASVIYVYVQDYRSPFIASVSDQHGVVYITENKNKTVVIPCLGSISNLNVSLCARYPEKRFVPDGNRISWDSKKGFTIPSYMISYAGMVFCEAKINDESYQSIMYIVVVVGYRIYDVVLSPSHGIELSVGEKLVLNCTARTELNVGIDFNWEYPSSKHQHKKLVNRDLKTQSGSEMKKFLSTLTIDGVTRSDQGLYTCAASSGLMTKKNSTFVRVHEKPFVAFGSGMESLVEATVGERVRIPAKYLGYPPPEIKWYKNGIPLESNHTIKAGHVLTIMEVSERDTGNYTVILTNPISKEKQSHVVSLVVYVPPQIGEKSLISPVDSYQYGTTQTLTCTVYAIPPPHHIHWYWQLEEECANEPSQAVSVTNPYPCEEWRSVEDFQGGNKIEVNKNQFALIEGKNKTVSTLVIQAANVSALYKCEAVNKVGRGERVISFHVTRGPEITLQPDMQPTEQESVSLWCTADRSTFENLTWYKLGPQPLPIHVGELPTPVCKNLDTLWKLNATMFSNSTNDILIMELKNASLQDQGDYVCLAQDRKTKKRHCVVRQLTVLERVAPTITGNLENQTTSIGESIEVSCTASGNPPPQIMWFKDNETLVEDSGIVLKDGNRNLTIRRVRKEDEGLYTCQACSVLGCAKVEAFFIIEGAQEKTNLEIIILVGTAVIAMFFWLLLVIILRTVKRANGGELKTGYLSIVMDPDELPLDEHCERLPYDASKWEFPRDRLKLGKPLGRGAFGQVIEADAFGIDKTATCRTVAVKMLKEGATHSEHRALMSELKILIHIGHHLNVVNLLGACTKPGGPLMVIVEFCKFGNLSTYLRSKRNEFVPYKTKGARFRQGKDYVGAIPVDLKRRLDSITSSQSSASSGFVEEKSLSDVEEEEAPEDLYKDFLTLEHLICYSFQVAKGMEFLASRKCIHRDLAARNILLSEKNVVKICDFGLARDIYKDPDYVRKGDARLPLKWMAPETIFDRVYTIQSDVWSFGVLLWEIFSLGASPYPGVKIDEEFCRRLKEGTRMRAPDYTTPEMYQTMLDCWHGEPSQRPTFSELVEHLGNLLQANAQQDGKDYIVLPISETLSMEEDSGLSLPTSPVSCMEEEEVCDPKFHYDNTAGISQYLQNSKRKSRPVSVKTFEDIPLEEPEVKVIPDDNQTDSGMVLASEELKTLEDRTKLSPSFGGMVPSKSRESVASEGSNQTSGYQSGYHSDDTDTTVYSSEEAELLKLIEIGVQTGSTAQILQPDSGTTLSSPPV
Mitogen-activated protein kinase 15 (Homo sapiens), sequence (Q8TD08 whole entry): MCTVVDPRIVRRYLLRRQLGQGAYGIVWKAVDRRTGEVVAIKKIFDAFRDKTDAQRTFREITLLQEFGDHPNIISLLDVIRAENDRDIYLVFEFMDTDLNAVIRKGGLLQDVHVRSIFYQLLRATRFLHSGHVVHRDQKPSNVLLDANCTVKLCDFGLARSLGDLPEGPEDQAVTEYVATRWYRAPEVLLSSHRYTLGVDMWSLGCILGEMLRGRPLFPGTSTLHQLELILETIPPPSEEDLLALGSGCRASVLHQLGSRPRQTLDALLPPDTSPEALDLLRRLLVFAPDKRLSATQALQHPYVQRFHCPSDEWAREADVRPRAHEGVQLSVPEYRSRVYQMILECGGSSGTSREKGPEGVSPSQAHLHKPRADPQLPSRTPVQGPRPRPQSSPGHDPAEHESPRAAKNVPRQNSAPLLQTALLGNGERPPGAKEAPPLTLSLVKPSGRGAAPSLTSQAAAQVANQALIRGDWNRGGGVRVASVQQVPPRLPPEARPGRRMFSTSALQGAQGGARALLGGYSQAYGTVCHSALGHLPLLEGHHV
Epidermal growth factor receptor (Homo sapiens), sequence (P00533 whole entry, the tested form may be a part): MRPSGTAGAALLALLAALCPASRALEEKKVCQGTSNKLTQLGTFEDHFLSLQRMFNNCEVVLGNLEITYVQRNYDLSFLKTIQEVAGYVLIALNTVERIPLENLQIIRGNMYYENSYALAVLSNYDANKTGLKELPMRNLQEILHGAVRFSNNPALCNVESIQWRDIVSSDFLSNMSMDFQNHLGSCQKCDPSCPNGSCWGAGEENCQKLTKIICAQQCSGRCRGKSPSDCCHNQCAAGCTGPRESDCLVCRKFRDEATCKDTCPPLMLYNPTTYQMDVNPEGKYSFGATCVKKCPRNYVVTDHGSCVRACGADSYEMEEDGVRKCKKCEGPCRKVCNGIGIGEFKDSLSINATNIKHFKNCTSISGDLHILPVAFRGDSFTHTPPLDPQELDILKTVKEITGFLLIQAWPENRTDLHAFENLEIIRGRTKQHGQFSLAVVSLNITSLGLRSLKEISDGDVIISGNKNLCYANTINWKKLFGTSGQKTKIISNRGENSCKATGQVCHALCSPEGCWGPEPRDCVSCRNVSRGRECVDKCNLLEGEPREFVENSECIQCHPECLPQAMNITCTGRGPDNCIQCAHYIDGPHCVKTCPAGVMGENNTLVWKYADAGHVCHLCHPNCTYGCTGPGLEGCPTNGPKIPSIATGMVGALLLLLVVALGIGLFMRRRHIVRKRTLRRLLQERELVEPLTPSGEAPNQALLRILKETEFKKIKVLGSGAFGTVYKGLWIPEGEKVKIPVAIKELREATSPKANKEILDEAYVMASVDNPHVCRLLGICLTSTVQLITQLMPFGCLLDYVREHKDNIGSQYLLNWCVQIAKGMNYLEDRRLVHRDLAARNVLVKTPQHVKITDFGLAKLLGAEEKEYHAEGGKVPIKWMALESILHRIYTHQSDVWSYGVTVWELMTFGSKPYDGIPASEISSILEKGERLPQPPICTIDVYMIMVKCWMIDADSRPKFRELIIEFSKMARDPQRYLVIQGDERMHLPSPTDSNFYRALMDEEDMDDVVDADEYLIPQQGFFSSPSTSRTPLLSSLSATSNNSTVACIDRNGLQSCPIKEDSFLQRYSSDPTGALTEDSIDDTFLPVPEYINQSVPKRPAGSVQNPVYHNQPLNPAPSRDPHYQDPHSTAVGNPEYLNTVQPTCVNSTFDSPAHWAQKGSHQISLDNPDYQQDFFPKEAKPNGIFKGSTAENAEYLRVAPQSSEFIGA
Serine/threonine-protein kinase PLK2 (Homo sapiens), sequence (Q9NYY3 whole entry, looked up, the tested form may be a part): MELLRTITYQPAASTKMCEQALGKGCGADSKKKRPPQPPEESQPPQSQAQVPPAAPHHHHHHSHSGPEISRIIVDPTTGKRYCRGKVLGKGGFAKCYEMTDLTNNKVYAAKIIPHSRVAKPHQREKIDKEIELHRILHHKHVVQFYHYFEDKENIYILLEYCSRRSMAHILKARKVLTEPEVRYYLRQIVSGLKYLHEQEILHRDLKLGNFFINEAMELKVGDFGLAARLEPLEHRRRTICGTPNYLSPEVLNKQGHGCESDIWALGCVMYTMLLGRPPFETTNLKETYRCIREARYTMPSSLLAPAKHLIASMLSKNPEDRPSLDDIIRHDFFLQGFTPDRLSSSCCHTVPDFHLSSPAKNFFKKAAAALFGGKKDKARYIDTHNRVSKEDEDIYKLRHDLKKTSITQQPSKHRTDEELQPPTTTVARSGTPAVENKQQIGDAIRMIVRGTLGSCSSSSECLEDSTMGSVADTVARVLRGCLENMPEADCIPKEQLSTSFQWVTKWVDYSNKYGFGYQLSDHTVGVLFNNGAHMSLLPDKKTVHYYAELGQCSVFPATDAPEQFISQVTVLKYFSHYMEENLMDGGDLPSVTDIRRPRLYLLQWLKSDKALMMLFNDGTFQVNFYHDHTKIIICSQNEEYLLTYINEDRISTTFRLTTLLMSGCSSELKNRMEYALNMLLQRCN

## CCOc1nc(Nc2ccc(C(=O)N3CCOCC3)cc2OC)nc2[nH]ccc12
[1]
  Activity: 99.6%
[2]
  Activity: 109%
[3]
  Activity: 97.7%
[4]
  Activity: 98.5%
[5]
  Activity: 104%
[6]
  Activity: 93.8%
[7]
  Activity: 106%
[8]
  Activity: 99%
[9]
  Activity: 86.1%
[10]
  Activity: 91.4%
[11]
  Activity: 101%
[12]
  Activity: 106%
[13]
  Activity: 91.6%
[14]
  Activity: 94.8%
[15]
  Activity: 90.9%
[16]
  Activity: 106%
[17]
  Activity: 80.3%
[18]
  Activity: 95.6%
[19]
  Activity: 92.1%
[20]
  Activity: 94.4%
[21]
  Activity: 100%
[22]
  Activity: 89.4%
[23]
  Activity: 104%
[24]
  Activity: 92.4%
[25]
  Activity: 101%
[26]
  Activity: 46.5%
